For 23 compounds, IC50 results are on record in US11440899B2, “Pyrimidine TBK/IKKe inhibitor compounds and uses thereof” (Merck Patent GmbH, priority 2017, dated 2022).

Structures can show the parent of a compound that is named as a salt. A value given as a limit tells only on which side of the number the result lay.

For orientation: IC50 means the concentration that inhibits the measured activity by half.

In one experiment the target is TBK1 (Homo sapiens (Human), UniProt Q9UHD2). Kind of experiment: TBK Biochemical Assay. How it is done:
Example 106: TBK Biochemical Assay Test compounds were transferred into Labcyte polypropylene 384 well plates ([…]-25) and diluted to 3 mM using DMSO. 3 mM test compounds were dispensed using Labcyte ECHO dose response module into Greiner 784075 plates (columns 3-12 and 13-22, 10 point 1:4) so that high concentration was 30 uM final. 100 uM of a reference compound (1 uM final high concentration). Backfilling was performed if necessary so that all wells contain 1% DMSO final: add 75 nl DMSO/well into columns 1, 2 and 24 using Labcyte Echo. add 75 nl 1.0 mM staurosporine/well into column 23 using Labcyte Echo (10 uM final) add 4.5 ul enzyme/well using multidrop dispenser add 3 ul substrate/well using multidrop dispenser incubate at 25° C. in Heidolph incubator for 90 min. add 7.5 ul 2× stop buffer using multidrop dispenser read on labchip ez reader II using TBK1.job Raw data files were opened in the Caliper LabChip Reviewer program (Version 3.0.265.0 SP2) and peak assignments were adjusted to reflect “substrate first” with the software's post-run analysis options. A spline-fit baseline was applied using the software's analysis algorithm.

The target in a further experiment is IKKe (Homo sapiens (Human), UniProt Q14164). In words: IKKe Biochemical Assay. How it is done: IKKe Biochemical Assay Test compounds were transferred into Labcyte polypropylene 384 well plates ([…]-25) and diluted to 3 mM using DMSO. 3 mM test compounds were dispensed using Labcyte ECHO dose response module into Greiner 784075 plates (columns 3-12 and 13-22, 10 point 1:4) so that high concentration was 30 uM final. 100 uM of a reference compound (1 uM final high concentration). Backfilling was performed if necessary so that all wells contain 1% DMSO final: add 75 nl DMSO/well into columns 1, 2 and 24 using Labcyte Echo. add 75 nl 1.0 mM staurosporine/well into column 23 using Labcyte Echo (10 uM final) add 4.5 ul enzyme/well using multidrop dispenser add 3 ul substrate/well using multidrop dispenser incubate at 25° C. for 90 min. add 7.5 ul 2× stop buffer read on labchip ez reader II using IKKε. job Raw data files were opened in the Caliper LabChip Reviewer program (Version 3.0.265.0 SP2) and peak assignments were adjusted to reflect “substrate first” with the software's post-run analysis options. A spline-fit baseline was applied using the software's analysis algorithm.
IKKe, sequence (Q14164 whole entry, species assumed): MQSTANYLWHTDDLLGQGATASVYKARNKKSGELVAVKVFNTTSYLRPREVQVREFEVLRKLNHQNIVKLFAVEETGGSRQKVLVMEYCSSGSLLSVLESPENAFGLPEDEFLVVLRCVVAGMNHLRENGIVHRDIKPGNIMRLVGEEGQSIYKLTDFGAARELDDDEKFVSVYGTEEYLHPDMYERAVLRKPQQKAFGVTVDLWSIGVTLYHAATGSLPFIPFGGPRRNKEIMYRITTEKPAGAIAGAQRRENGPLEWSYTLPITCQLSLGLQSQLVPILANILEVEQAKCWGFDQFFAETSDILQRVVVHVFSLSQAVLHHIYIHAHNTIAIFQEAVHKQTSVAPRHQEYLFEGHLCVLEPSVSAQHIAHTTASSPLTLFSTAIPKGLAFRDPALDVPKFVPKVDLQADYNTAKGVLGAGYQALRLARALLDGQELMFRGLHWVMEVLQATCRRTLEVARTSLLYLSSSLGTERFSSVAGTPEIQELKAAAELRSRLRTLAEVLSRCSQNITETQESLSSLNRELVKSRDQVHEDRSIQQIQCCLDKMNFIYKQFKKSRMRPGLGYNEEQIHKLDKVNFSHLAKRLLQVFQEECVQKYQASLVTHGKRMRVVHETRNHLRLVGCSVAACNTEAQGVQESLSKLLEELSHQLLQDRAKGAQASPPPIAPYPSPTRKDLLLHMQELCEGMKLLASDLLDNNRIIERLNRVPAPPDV

TBK1, sequence (Q9UHD2 whole entry, species assumed): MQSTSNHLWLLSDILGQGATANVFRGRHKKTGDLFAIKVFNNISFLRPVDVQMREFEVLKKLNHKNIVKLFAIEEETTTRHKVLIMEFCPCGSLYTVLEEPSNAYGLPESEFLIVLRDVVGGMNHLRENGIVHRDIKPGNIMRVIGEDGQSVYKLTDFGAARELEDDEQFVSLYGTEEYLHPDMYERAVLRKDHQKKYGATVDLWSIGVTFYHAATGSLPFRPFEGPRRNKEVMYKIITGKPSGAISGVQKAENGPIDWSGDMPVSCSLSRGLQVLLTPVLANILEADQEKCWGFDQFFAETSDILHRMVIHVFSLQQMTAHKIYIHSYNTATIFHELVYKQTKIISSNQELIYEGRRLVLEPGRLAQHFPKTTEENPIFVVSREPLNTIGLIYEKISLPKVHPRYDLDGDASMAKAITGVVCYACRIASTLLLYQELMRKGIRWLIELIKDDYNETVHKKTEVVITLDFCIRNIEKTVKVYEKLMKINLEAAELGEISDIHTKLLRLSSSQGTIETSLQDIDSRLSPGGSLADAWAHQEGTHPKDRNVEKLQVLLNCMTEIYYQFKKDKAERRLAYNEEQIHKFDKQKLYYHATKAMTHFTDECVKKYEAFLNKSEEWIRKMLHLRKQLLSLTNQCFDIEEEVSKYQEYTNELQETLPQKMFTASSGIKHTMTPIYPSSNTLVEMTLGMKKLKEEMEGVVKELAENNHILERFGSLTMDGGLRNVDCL

Regarding `COc1nc(Nc2cc(-c3ccc(OC4CCOCC4)c(C#N)c3)ncn2)ccc1C(=O)N(C)C` [Example 1, 6-([6-[3-cyano-4-(oxan-4-yloxy)phenyl]pyrimidin-4-yl]amino)-2-methoxy-N,N-dimethylpyridine-3-carboxamide], the IC50 at TBK1 and at IKKe was below 100 nM each time.
As to `COc1nc(Nc2cc(-c3ccc(OC4CCOCC4)c(C#N)c3)ncn2)ccc1C(=O)N(C)CCO` [Example 2, 6-([6-[3-cyano-4-(oxan-4-yloxy)phenyl]pyrimidin-4-yl]amino)-N-(2-hydroxyethyl)-2-methoxy-N-methylpyridine-3-carboxamide], the IC50 against TBK1 and against IKKe was below 100 nM throughout.
For `COc1nc(Nc2cc(-c3ccc(OC4CCOCC4)c(C#N)c3)ncn2)ccc1C(=O)N1CC2CC(C1)O2` [Example 3, 5-(6-[[6-methoxy-5-([6-oxa-3-azabicyclo[3.1.1]heptan-3-yl]carbonyl)pyridin-2-yl]amino]pyrimidin-4-yl)-2-(oxan-4-yloxy)benzonitrile], the IC50 at TBK1 and on IKKe was below 100 nM in each case.
As for `COc1nc(Nc2cc(-c3ccc(OC4CCOCC4)c(C#N)c3)ncn2)ccc1C(=O)NC1C2COCC21` (stereo not drawn) [Example 4, 6-([6-[3-cyano-4-(oxan-4-yloxy)phenyl]pyrimidin-4-yl]amino)-2-methoxy-N-[3-oxabicyclo[3.1.0]hexan-6-yl]pyridine-3-carboxamide], the IC50 against TBK1 and at IKKe was below 100 nM in each case.
On to `COc1nc(Nc2cc(-c3ccc(OC4CCOCC4)c(C#N)c3)ncn2)ccc1C(=O)N1CC2CCC(C1)O2` [Example 5, 5-(6-((5-(8-oxa-3-azabicyclo[3.2.1]octane-3-carbonyl)-6-methoxypyridin-2-yl)amino)pyrimidin-4-yl)-2-((tetrahydro-2H-pyran-4-yl)oxy)benzonitrile], for which the IC50 against TBK1 and on IKKe was below 100 nM in each case.
Regarding `COc1nc(Nc2cc(-c3ccc(OC4CCOCC4)c(C#N)c3)ncn2)ccc1C(=O)N1CC2COCC2C1` (stereo not drawn) [Example 6, 5-(6-[[5-([hexahydro-1H-furo[3,4-c]pyrrol-5-yl]carbonyl)-6-methoxypyridin-2-yl]amino]pyrimidin-4-yl)-2-(oxan-4-yloxy)benzonitrile], the IC50 at TBK1 and on IKKe was below 100 nM each time.
Take `COc1nc(Nc2cc(-c3ccc(OC4CCOCC4)c(C#N)c3)ncn2)ccc1C(=O)NC1CCN(C)CC1` [Example 7, 6-([6-[3-cyano-4-(oxan-4-yloxy)phenyl]pyrimidin-4-yl]amino)-2-methoxy-N-(1-methylpiperidin-4-yl)pyridine-3-carboxamide hydrochloride]: the half-inhibitory concentration (IC50) at TBK1 and against IKKe was below 100 nM throughout.
On to `COc1nc(Nc2cc(-c3ccc(OC4CCOCC4)c(C#N)n3)ncn2)ccc1C(=O)N(C)C` [Example 8, 6-([6-[6-cyano-5-(oxan-4-yloxy)pyridin-2-yl]pyrimidin-4-yl]amino)-2-methoxy-N,N-dimethylpyridine-3-carboxamide], for which the IC50 against TBK1 and against IKKe was 1000 to 5000 nM each time.
With `COc1nc(Nc2cc(-c3cnc(OC4CCOCC4)c(C#N)c3)ncn2)ccc1C(=O)N(C)C` [Example 9, 6-([6-[5-cyano-6-(oxan-4-yloxy)pyridin-3-yl]pyrimidin-4-yl]amino)-2-methoxy-N,N-dimethylpyridine-3-carboxamide hydrochloride], the concentration for half-maximal inhibition (IC50) against TBK1 and against IKKe was below 100 nM in each case.
Turning to `COc1nc(Nc2cc(-c3ccc(OC4CCOCC4)c(C#N)c3)ncn2)ccc1N1CCS(=O)(=O)CC1` [Example 10, 5-(6-[[5-(1,1-dioxo-1λ,4-thiomorpholin-4-yl)-6-methoxypyridin-2-yl]amino]pyrimidin-4-yl)-2-(oxan-4-yloxy)benzonitrile], the 50% inhibitory concentration (IC50) against TBK1 and against IKKe was below 100 nM in each case.
Consider `COc1nc(Nc2cc(-c3ccc(OC4CCOCC4)c(C#N)c3)ncn2)ccc1N(C)CCN(C)C` [Example 11, 5-[6-[(5-[[2-(dimethylamino)ethyl](methyl)amino]-6-methoxypyridin-2-yl)amino]pyrimidin-4-yl]-2-(oxan-4-yloxy)benzonitrile], for which the half-inhibitory concentration (IC50) against TBK1 and against IKKe was below 100 nM in each case.
For `COc1nc(Nc2cc(-c3ccc(OC4CCOCC4)c(C#N)c3)ncn2)ccc1N1CCN(C)CC1` [Example 12, 5-(6-[[6-methoxy-5-(4-methylpiperazin-1-yl)pyridin-2-yl]amino]pyrimidin-4-yl)-2-(oxan-4-yloxy)benzonitrile], the IC50 against TBK1 and against IKKe was below 100 nM each time.
`COc1nc(Nc2cc(-c3ccc(OC4CCOCC4)c(C#N)c3)ncn2)ccc1N(C)CC(=O)N(C)C` [Example 13, 2-[[6-([6-[3-cyano-4-(oxan-4-yloxy)phenyl]pyrimidin-4-yl]amino)-2-methoxypyridin-3-yl](methyl)amino]-N,N-dimethylacetamide]: the half-maximal inhibitory concentration (IC50) at TBK1 and against IKKe was below 100 nM throughout.
Take `COc1nc(Nc2cc(-c3ccc(OC4CCOCC4)c(C#N)c3)ncn2)ccc1N1CCN(CC(F)F)CC1` [Example 14, 5-[6-([5-[4-(2,2-difluoroethyl)piperazin-1-yl]-6-methoxypyridin-2-yl]amino)pyrimidin-4-yl]-2-(oxan-4-yloxy)benzonitrile]: the IC50 on TBK1 and at IKKe was below 100 nM each time.
Consider `COc1nc(Nc2cc(-c3ccc(OC4CCOCC4)c(C#N)c3)ncn2)ccc1N1C[C@@H](C)O[C@@H](C)C1` [Example 15, 5-[6-([5-[(2R,6S)-2,6-dimethylmorpholin-4-yl]-6-methoxypyridin-2-yl]amino)pyrimidin-4-yl]-2-(oxan-4-yloxy)benzonitrile], for which the concentration for half-maximal inhibition (IC50) against TBK1 and on IKKe was below 100 nM throughout.
As to `COc1nc(Nc2cc(-c3ccc(OC4CCOCC4)c(C#N)c3)ncn2)ccc1N1C[C@@H](C)N(C2COC2)[C@@H](C)C1` [Example 16, 5-[6-([5-[(3R,5S)-3,5-dimethyl-4-(oxetan-3-yl)piperazin-1-yl]-6-methoxypyridin-2-yl]amino)pyrimidin-4-yl]-2-(oxan-4-yloxy)benzonitrile], the IC50 on TBK1 and against IKKe was below 100 nM throughout.
Regarding `COc1nc(Nc2cc(-c3ccc(OC4CCOCC4)c(C#N)c3)ncn2)ccc1C1CCNCC1` [Example 17, 5-(6-[[6-methoxy-5-(piperidin-4-yl)pyridin-2-yl]amino]pyrimidin-4-yl)-2-(oxan-4-yloxy)benzonitrile], the half-maximal inhibitory concentration (IC50) at TBK1 and on IKKe was below 100 nM each time.
For the compound `COc1nc(Nc2cc(-c3ccc(OC4CCOCC4)c(C#N)c3)ncn2)ccc1C1CCN(C)CC1` [Example 18, 5-(6-[[6-methoxy-5-(1-methylpiperidin-4-yl)pyridin-2-yl]amino]pyrimidin-4-yl)-2-(oxan-4-yloxy)benzonitrile], the IC50 against TBK1 and against IKKe was below 100 nM in each case.
Turning to `COc1nc(Nc2cc(-c3ccc(OC4CCOCC4)c(C#N)c3)ncn2)ccc1CNC1CCN(C)CC1` [Example 19, 5-[6-[(6-methoxy-5-[[(1-methylpiperidin-4-yl)amino]methyl]pyridin-2-yl)amino]pyrimidin-4-yl]-2-(oxan-4-yloxy)benzonitrile], the IC50 on TBK1 and against IKKe was below 100 nM throughout.
For `COc1nc(Nc2cc(-c3ccc(OC4CCOCC4)c(C#N)c3)ncn2)ccc1C1CCN(C)C1` (stereo not drawn) [Example 20, 5-(6-[[6-methoxy-5-(1-methylpyrrolidin-3-yl)pyridin-2-yl]amino]pyrimidin-4-yl)-2-(oxan-4-yloxy)benzonitrile], the IC50 against TBK1 and at IKKe was below 100 nM in each case.
As to `COc1nc(Nc2cc(-c3cc(C#N)c(OC4CCOCC4)cn3)ncn2)ccc1N1CCN(C)CC1` [Example 21, 2-(6-[[6-methoxy-5-(4-methylpiperazin-1-yl)pyridin-2-yl]amino]pyrimidin-4-yl)-5-(oxan-4-yloxy)pyridine-4-carbonitrile], the 50% inhibitory concentration (IC50) against TBK1 and on IKKe was below 100 nM throughout.
For `COc1nc(Nc2cc(-c3ccc(OC4CCOCC4)c(C#N)n3)ncn2)ccc1N1CCN(C)CC1` [Example 22, 6-(6-[[6-methoxy-5-(4-methylpiperazin-1-yl)pyridin-2-yl]amino]pyrimidin-4-yl)-3-(oxan-4-yloxy)pyridine-2-carbonitrile], the IC50 on TBK1 and on IKKe was 100 to 1000 nM each time.
As to `COc1nc(Nc2cc(-c3ccc(O[C@@H]4CCN(C(=O)CO)CC4(F)F)c(C#N)c3)ncn2)ccc1N1CCN(C)CC1` [Example 61, 2-[[(4R)-3,3-difluoro-1-(2-hydroxyacetyl)piperidin-4-yl]oxy]-5-(6-[[6-methoxy-5-(4-methylpiperazin-1-yl)pyridin-2-yl]amino]pyrimidin-4-yl)benzonitrile], the concentration for half-maximal inhibition (IC50) against TBK1 was below 100 nM.
